Tests used:
[1] = system: rape; assay: Test B pre/postemergence rape; type: in vivo, Brassica napus
Method in brief: (§1)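 Response is a visual 0-to-10 score relative to untreated plants, where 0 means no effect and 10 means complete control, taken twelve to sixteen days after application. Treatments went onto soil at planting and onto foliage of 1- to 4-leaf plants, using a surfactant-containing non-phytotoxic solvent.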

[2] = system: crabgrass; assay: Test B pre/postemergence crabgrass; type: in vivo, Digitaria sanguinalis
Method in brief: as §1

[3] = system: morningglory; assay: Test B pre/postemergence morningglory; type: in vivo, Ipomoea hederacea
Method in brief: as §1

[4] = system: velvetleaf; assay: Test B pre/postemergence velvetleaf; type: in vivo, Abutilon theophrasti
Method in brief: as §1

[5] = system: purple nutsedge; assay: Test B pre/postemergence purple nutsedge; type: in vivo, Cyperus rotundus
Method in brief: as §1

[6] = system: soybean; assay: Test B pre/postemergence soybean; type: in vivo, Glycine max
Method in brief: as §1

[7] = system: wild oat; assay: Test B pre/postemergence wild oat; type: in vivo, Avena fatua
Method in brief: as §1

[8] = system: wheat; assay: Test B pre/postemergence wheat; type: in vivo, Triticum aestivum
Method in brief: as §1

[9] = system: smallflower flatsedge; assay: Test B flood test smallflower flatsedge; type: in vivo, Cyperus difformis; conditions: for S. Flatsedge plant response rating: scale of 0 to 10 where 0 is no effect and 10 is complete control
Method in brief: (§2)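 Read-out is a visual response score from 0 (no effect) to 10 (complete control), assigned by comparison with untreated controls. Treatment was applied at the 2-leaf stage, and plants stayed in the greenhouse for twelve to sixteen days before scoring.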

[10] = system: duck salad; assay: Test B flood test duck salad; type: in vivo, Heteranthera limosa; conditions: for Plant response rating, Ducksalad: scale 0 to 10, 0 is no effect, 10 is complete control; for Ducksalad plant response rating: scale of 0 to 10 where 0 is no effect and 10 is complete control
Method in brief: as §2

[11] = system: corn; assay: Test B pre/postemergence corn; type: in vivo, Zea mays
Method in brief: as §1

[12] = system: blackgrass; assay: Test B pre/postemergence blackgrass; type: in vivo, Alopecurus myosuroides
Method in brief: as §1

[13] = system: surinam grass; assay: Test B pre/postemergence surinam grass; type: in vivo, Brachiaria decumbens
Method in brief: as §1

[14] = system: giant foxtail; assay: Test B pre/postemergence giant foxtail; type: in vivo, Setaria faberii
Method in brief: as §1

[15] = system: cocklebur; assay: Test B pre/postemergence cocklebur; type: in vivo, Xanthium strumarium
Method in brief: as §1

[16] = system: sugar beet; assay: Test B pre/postemergence sugar beet; type: in vivo, Beta vulgaris
Method in brief: as §1

[17] = Postemergence, Rate 250 g/ha, scale 0 to 10, 0 is no effect, 10 is complete control
[18] = Postemergence, Rate 500 g/ha, scale of 0 to 10 where 0 is no effect and 10 is complete control
[19] = Preemergence, Rate 62 g/ha, scale 0 to 10 (0 no effect, 10 complete control)
[20] = Preemergence, Rate 125 g/ha, scale of 0 to 10 where 0 is no effect and 10 is complete control
[21] = Preemergence, Rate 250 g/ha, scale 0 to 10, 0 is no effect, 10 is complete control
[22] = Preemergence, Rate 500 g/ha, scale 0 to 10, 0 is no effect, 10 is complete control
[23] = Rate 62 g/ha, Postemergence, scale of 0 to 10 where 0 is no effect and 10 is complete control
[24] = Postemergence, Rate 125 g/ha, scale 0 to 10, 0 is no effect, 10 is complete control
[25] = Postemergence section (flood test species), Rate 500 g/ha
[26] = Rate 62 g/ha, Postemergence (flood test species)
[27] = Preemergence, Rate 250 g/ha, scale of 0 to 10 where 0 is no effect and 10 is complete control

## CC(C)N(C(=O)n1oc(=O)n(CCC(F)(F)F)c1=O)c1ccc(F)cc1 [Compound 397]
[1]; [17]
  Plant response rating, Rape: 0
[1]; [18]
  Rape plant response rating: 2
[1]; [19]
  Plant response rating, Rape: 3
[1]; [20]
  Plant response rating, Rape: 9
[1]; [21]
  Rape plant response rating: 10
[1]; [22]
  Rape plant response rating: 10
[1]; [23]
  Rape plant response rating: 0
[2]; [24]
  Plant response rating, Crabgrass: 6
[2]; [17]
  Plant response rating, Crabgrass: 9
[2]; [18]
  Crabgrass plant response rating: 9
[2]; [19]
  Plant response rating, Crabgrass: 10
[2]; [20]
  Plant response rating, Crabgrass: 10
[2]; [21]
  Crabgrass plant response rating: 10
[2]; [22]
  Crabgrass plant response rating: 10
[2]; [23]
  Crabgrass plant response rating: 2
[3]; [17]
  Plant response rating, Morningglory: 5
[3]; [18]
  Morningglory plant response rating: 6
[3]; [19]
  Plant response rating, Morningglory: 0
[3]; [20]
  Plant response rating, Morningglory: 0
[3]; [21]
  Morningglory plant response rating: 0
[3]; [22]
  Morningglory plant response rating: 4
[3]; [23]
  Morningglory plant response rating: 0
[4]; [17]
  Plant response rating, Velvetleaf: 0
[4]; [18]
  Velvetleaf plant response rating: 0
[4]; [19]
  Plant response rating, Velvetleaf: 0
[4]; [20]
  Plant response rating, Velvetleaf: 2
[4]; [21]
  Velvetleaf plant response rating: 6
[4]; [22]
  Velvetleaf plant response rating: 6
[4]; [23]
  Velvetleaf plant response rating: 0
[5]; [17]
  Plant response rating, Nutsedge: 0
[5]; [18]
  Nutsedge plant response rating: 0
[5]; [19]
  Plant response rating, Nutsedge: 0
[5]; [20]
  Plant response rating, Nutsedge: 0
[5]; [21]
  Nutsedge plant response rating: 0
[5]; [22]
  Nutsedge plant response rating: 0
[5]; [23]
  Nutsedge plant response rating: 0
[6]; [17]
  Plant response rating, Soybean: 5
[6]; [18]
  Soybean plant response rating: 6
[6]; [19]
  Plant response rating, Soybean: 0
[6]; [20]
  Plant response rating, Soybean: 0
[6]; [21]
  Soybean plant response rating: 0
[6]; [22]
  Soybean plant response rating: 0
[6]; [23]
  Soybean plant response rating: 3
[7]; [18]
  Wild oats plant response rating: 5
[7]; [19]
  Plant response rating, Wild oats: 2
[7]; [20]
  Plant response rating, Wild oats: 5
[7]; [21]
  Wild oats plant response rating: 7
[7]; [22]
  Wild oats plant response rating: 10
[7]; [23]
  Wild oats plant response rating: 0
[8]; [18]
  Wheat plant response rating: 4
[8]; [19]
  Plant response rating, Wheat: 0
[8]; [20]
  Plant response rating, Wheat: 0
[8]; [21]
  Wheat plant response rating: 2
[8]; [22]
  Wheat plant response rating: 3
[8]; [23]
  Wheat plant response rating: 0
[9]; [25]
  S. Flatsedge plant response rating: 0
[9]; [26]
  S. Flatsedge plant response rating: 0
[9]; flood test species, listed under Postemergence, Rate 250 g/ha, scale 0 to 10, 0 is no effect, 10 is complete control
  Plant response rating, S. Flatsedge: 0
[10]; Postemergence (flood test), Rate 125 g/ha
  Plant response rating, Ducksalad: 0
[10]; [25]
  Ducksalad plant response rating: 0
[10]; [26]
  Ducksalad plant response rating: 0
[10]; flood test species, listed under Postemergence, Rate 250 g/ha
  Plant response rating, Ducksalad: 0
[11]; [24]
  Plant response rating, Corn: 0
[11]; [17]
  Plant response rating, Corn: 0
[11]; [18]
  Corn plant response rating: 0
[11]; [19]
  Plant response rating, Corn: 0
[11]; [20]
  Plant response rating, Corn: 0
[11]; [21]
  Corn plant response rating: 3
[11]; [22]
  Corn plant response rating: 8
[11]; [23]
  Corn plant response rating: 0
[12]; [24]
  Plant response rating, Blackgrass: 8
[12]; [17]
  Plant response rating, Blackgrass: 9
[12]; [18]
  Blackgrass plant response rating: 9
[12]; [19]
  Plant response rating, Blackgrass: 7
[12]; [20]
  Plant response rating, Blackgrass: 9
[12]; [27]
  Blackgrass plant response rating: 10
[12]; [22]
  Blackgrass plant response rating: 10
[12]; [23]
  Blackgrass plant response rating: 6
[13]; [24]
  Plant response rating, B. signalgrass: 0
[13]; [17]
  Plant response rating, B. signalgrass: 2
[13]; [18]
  B. signalgrass plant response rating: 8
[13]; [19]
  Plant response rating, B. signalgrass: 3
[13]; [20]
  Plant response rating, B. signalgrass: 6
[13]; [27]
  B. signalgrass plant response rating: 9
[13]; Preemergence, Rate 500 g/ha, scale of 0 to 10 where 0 is no effect and 10 is complete control
  B. signalgrass plant response rating: 10
[13]; [23]
  B. signalgrass plant response rating: 0
[14]; [24]
  Plant response rating, Giant foxtail: 8
[14]; [17]
  Plant response rating, Giant foxtail: 9
[14]; [18]
  Giant foxtail plant response rating: 9
[14]; [19]
  Plant response rating, Giant foxtail: 10
[14]; [20]
  Plant response rating, Giant foxtail: 10
[14]; [21]
  Giant foxtail plant response rating: 10
[14]; [22]
  Giant foxtail plant response rating: 10
[14]; [23]
  Giant foxtail plant response rating: 8
[15]; [24]
  Plant response rating, Cocklebur: 0
[15]; [17]
  Plant response rating, Cocklebur: 0
[15]; [18]
  Cocklebur plant response rating: 0
[15]; [19]
  Plant response rating, Cocklebur: 0
[15]; [20]
  Plant response rating, Cocklebur: 0
[15]; [21]
  Cocklebur plant response rating: 0
[15]; [22]
  Cocklebur plant response rating: 0
[15]; [23]
  Cocklebur plant response rating: 0
[16]; [17]
  Plant response rating, Sugarbeets: 0
[16]; [18]
  Sugarbeets plant response rating: 0
[16]; [19]
  Plant response rating, Sugarbeets: 0
[16]; [20]
  Plant response rating, Sugarbeets: 4
[16]; [21]
  Sugarbeets plant response rating: 7
[16]; [22]
  Sugarbeets plant response rating: 9
[16]; [23]
  Sugarbeets plant response rating: 0

— patent publication US6737383B1, “Herbicidal oxadiazolidines” (priority 1999, dated 2004)
